Measurements published in patent US11155557B2, “Pyrazolopyrimidine compounds and methods of use thereof” (Genentech, Inc., priority 2016, dated 2021).
Like-named read-outs stand apart in the source and are kept apart here.

Tests used:
[1] = tested on: JAK1-dependent STAT6 phosphorylation in BEAS-2B human bronchial epithelial cells; experiment: JAK1 pathway assay: IL-13 stimulated STAT6 phosphorylation in BEAS-2B cells; format: cell-based; conditions: BEAS-2B cells, IL-13 stimulation, read-out: IL-13 p-STAT6 BEAS-2B IC50
Method: JAK1 Pathway Assay in Cell Lines was Carried Out as Follows:
Inhibitor potency (EC50) was determined in cell-based assays designed to measure JAK1 dependent STAT phosphorylation.
In one assay approach, TF-1 human erythroleukemia cells obtained from the American Type Culture Collection (ATCC; Manassas, Va.) were used to measure JAK1-dependent STAT6 phosphorylation downstream of IL-13 stimulation. Prior to use in the assays, TF-1 cells were starved of GM-CSF overnight in OptiMEM medium (Life Technologies, Grand Island, N.Y.) supplemented with 0.5% charcoal/dextran stripped fetal bovine serum (FBS), 0.1 mM non-essential amino acids (NEAA), and 1 mM sodium pyruvate. The assays were run in 384-well plates in serum-free OptiMEM medium using 300,000 cells per well. In a second assay approach, BEAS-2B human bronchial epithelial cells obtained from ATCC were plated at 100,000 cells per well of a 96-well plate one day prior to the experiment. The BEAS-2B assay was run in complete growth medium (bronchial epithelial basal medium plus bulletkit; Lonza; Basel, Switzerland).
Test compounds were serially diluted 1:2 in DMSO and then diluted 1:50 in medium just before use. Diluted compounds were added to the cells, for a final DMSO concentration of 0.2%, and incubated for 30 min (for the TF-1 assay) or 1 hr (for the BEAS-2B assay) at 37° C. Then, cells were stimulated with human recombinant cytokine at their respective EC90 concentrations, as previously determined for each individual lot. Cells were stimulated with IL-13 (R&D Systems, Minneapolis, Minn.) for 15 min at 37° C. […] The resultant samples were frozen in the plates at −80° C. Compound mediated inhibition of STAT6 phosphorylation was measured in the cell lysates using MesoScale Discovery (MSD) technology (Gaithersburg, Md.).

[2] = target: isolated recombinant JAK1 kinase domain (Homo sapiens (Human), UniProt P23458); experiment: JAK1 enzyme assay (Caliper LabChip, Ki); format: biochemical
Chain of isolated recombinant JAK1 kinase domain (P23458 875-1153): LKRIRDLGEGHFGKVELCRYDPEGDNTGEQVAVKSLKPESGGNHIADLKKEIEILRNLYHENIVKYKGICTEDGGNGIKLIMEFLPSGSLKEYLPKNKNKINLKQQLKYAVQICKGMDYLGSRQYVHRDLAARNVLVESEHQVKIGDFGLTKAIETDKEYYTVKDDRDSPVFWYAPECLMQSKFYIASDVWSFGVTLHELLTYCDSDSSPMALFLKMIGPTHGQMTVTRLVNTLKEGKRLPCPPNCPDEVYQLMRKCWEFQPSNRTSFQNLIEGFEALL
Method: The activity of the isolated recombinant JAK1 and JAK2 kinase domain was measured by monitoring phosphorylation of a peptide derived from JAK3 ([…] fluorescently labeled on the N-terminus with 5-carboxyfluorescein) using the Caliper LabChip R technology (Caliper Life Sciences, Hopkinton, Mass.).

[3] = target: isolated recombinant JAK2 kinase domain (Homo sapiens (Human), UniProt O60674); experiment: JAK2 enzyme assay (Caliper LabChip, Ki); conditions: read-out: JAK2 Ki
Chain of isolated recombinant JAK2 kinase domain (O60674 849-1124): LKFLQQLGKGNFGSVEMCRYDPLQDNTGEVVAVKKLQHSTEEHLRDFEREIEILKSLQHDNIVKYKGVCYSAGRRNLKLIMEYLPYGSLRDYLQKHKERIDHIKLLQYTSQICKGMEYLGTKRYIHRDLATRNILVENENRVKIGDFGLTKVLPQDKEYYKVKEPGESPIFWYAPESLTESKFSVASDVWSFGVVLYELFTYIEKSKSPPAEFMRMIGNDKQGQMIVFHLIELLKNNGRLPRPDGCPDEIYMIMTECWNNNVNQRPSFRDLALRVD
Method: JAK Enzyme Assays were Carried Out as Follows:
The activity of the isolated recombinant JAK1 and JAK2 kinase domain was measured by monitoring phosphorylation of a peptide derived from JAK3 ([sequence] fluorescently labeled on the N-terminus with 5-carboxyfluorescein) using the Caliper LabChip R technology (Caliper Life Sciences, Hopkinton, Mass.). […] After termination of the kinase reaction, the proportion of phosphorylated product was determined as a fraction of total peptide substrate using the Caliper LabChip R 3000 according to the manufacturer's specifications.

Row | Ki [2] [nM] | Ki [3] [nM] | Ki ([2]; formic acid) [nM] | Ki ([3]; formic acid) [nM] | Structure (SMILES) | IC50 [1] [nM] | IC50 ([1]; Homo sapiens, BEAS-2B) [nM] | IC50 ([1]; formic acid) [nM]
1 | 0.15 | 0.11 | – | – | CN1CCC(n2cc(NC(=O)c3cnn4cccnc34)c(-c3cc4c(cc3OC(F)F)NCCS4)n2)C1=O (single isomer, unassigned) [Example 125, N-[3-[6-(difluoromethoxy)-3,4-dihydro-2H-1,4-benzothiazin-7-yl]-1-(1-methyl-2-oxo-pyrrolidin-3-yl)pyrazol-4-yl]pyrazolo[1,5-a]pyrimidine-3-carboxamide] | 81 | – | –
2 | 0.88 | 0.43 | – | – | CN1CCC(n2cc(NC(=O)c3cnn4cccnc34)c(-c3cc4c(cc3OC(F)F)NCCS4)n2)C1=O (single isomer, unassigned) [Example 126, N-[3-[6-(difluoromethoxy)-3,4-dihydro-2H-1,4-benzothiazin-7-yl]-1-(1-methyl-2-oxo-pyrrolidin-3-yl)pyrazol-4-yl]pyrazolo[1,5-a]pyrimidine-3-carboxamide] | 286 | – | –
3 | 0.17 | 0.09 | – | – | O=C(Nc1cn(C2CCOC2=O)nc1-c1cc2c(cc1OC(F)F)NCCS2)c1cnn2cccnc12 (single isomer, unassigned) [Example 141, N-[3-[6-(difluoromethoxy)-3,4-dihydro-2H-1,4-benzothiazin-7-yl]-1-(2-oxotetrahydrofuran-3-yl)pyrazol-4-yl]pyrazolo[1,5-a]pyrimidine-3-carboxamide] | – | 11 | –
4 | 0.09 | 0.06 | – | – | O=C(Nc1cn(C2CCOC2=O)nc1-c1cc2c(cc1OC(F)F)NCCS2)c1cnn2cccnc12 (single isomer, unassigned) [Example 142, N-[3-[6-(difluoromethoxy)-3,4-dihydro-2H-1,4-benzothiazin-7-yl]-1-(2-oxotetrahydrofuran-3-yl)pyrazol-4-yl]pyrazolo[1,5-a]pyrimidine-3-carboxamide] | 15 | – | –
5 | 0.6 | 0.42 | – | – | O=C(Nc1cn(C2CCOC2=O)nc1-c1cc2c(cc1OC(F)F)NCCO2)c1cnn2cccnc12 (single isomer, unassigned) [Example 145, N-[3-[6-(difluoromethoxy)-3,4-dihydro-2H-1,4-benzoxazin-7-yl]-1-(2-oxotetrahydrofuran-3-yl)pyrazol-4-yl]pyrazolo[1,5-a]pyrimidine-3-carboxamide] | 36 | – | –
6 | – | – | 0.32 | 0.29 | O=C(Nc1cn(C2CCOC2=O)nc1-c1cc2c(cc1OC(F)F)NCCO2)c1cnn2cccnc12 (single isomer, unassigned) [Example 146, N-[3-[6-(difluoromethoxy)-3,4-dihydro-2H-1,4-benzoxazin-7-yl]-1-(2-oxotetrahydrofuran-3-yl)pyrazol-4-yl]pyrazolo[1,5-a]pyrimidine-3-carboxamide; formic acid] | – | – | 74
7 | 0.2 | 0.31 | – | – | O=C(Nc1cn(CC(=O)N2CCCCC2)nc1-c1cc2c(cc1OC(F)F)NCCO2)c1cnn2cccnc12 [Example 6, N-[3-[6-(difluoromethoxy)-3,4-dihydro-2H-1,4-benzoxazin-7-yl]-1-[2-oxo-2-(piperidin-1-yl)ethyl]-1H-pyrazol-4-yl]pyrazolo[1,5-a]pyrimidine-3-carboxamide] | – | 17 | –

More lines, now with the values behind:

Row | Structure (SMILES) | Ki [2] [nM] | Ki [3] [nM] | Ki ([2]; formic acid) [nM] | Ki ([3]; formic acid) [nM] | IC50 [1] [nM] | IC50 ([1]; Homo sapiens, BEAS-2B) [nM] | IC50 ([1]; formic acid) [nM]
8 | CC1CNc2cc(OC(F)F)c(-c3nn(CC(=O)N(C)C)cc3NC(=O)c3cnn4cccnc34)cc2S1 (single isomer, unassigned) [Example 106, N-[3-[6-(difluoromethoxy)-2-methyl-3,4-dihydro-2H-1,4-benzothiazin-7-yl]-1-[2-(dimethylamino)-2-oxo-ethyl]pyrazol-4-yl]pyrazolo[1,5-a]pyrimidine-3-carboxamide] | 0.17 | 0.19 | – | – | 27 | – | –
9 | CC1CSc2cc(-c3nn(CC(=O)N4CCCCC4)cc3NC(=O)c3cnn4cccnc34)c(OC(F)F)cc2N1 (single isomer, unassigned) [Example 107, N-[3-[6-(difluoromethoxy)-3-methyl-3,4-dihydro-2H-1,4-benzothiazin-7-yl]-1-[2-oxo-2-(1-piperidyl)ethyl]pyrazol-4-yl]pyrazolo[1,5-a]pyrimidine-3-carboxamide] | 0.2 | 0.23 | – | – | – | 11 | –
10 | CC1CSc2cc(-c3nn(CC(=O)N4CCCCC4)cc3NC(=O)c3cnn4cccnc34)c(OC(F)F)cc2N1 (single isomer, unassigned) [Example 108, N-[3-[6-(difluoromethoxy)-3-methyl-3,4-dihydro-2H-1,4-benzothiazin-7-yl]-1-[2-oxo-2-(1-piperidyl)ethyl]pyrazol-4-yl]pyrazolo[1,5-a]pyrimidine-3-carboxamide] | 0.19 | 0.23 | – | – | 12 | – | –
11 | CC1CSc2cc(-c3nn(CC(=O)N4CC=CCC4)cc3NC(=O)c3cnn4cccnc34)c(OC(F)F)cc2N1 (single isomer, unassigned) [Example 111, N-[3-[6-(difluoromethoxy)-3-methyl-3,4-dihydro-2H-1,4-benzothiazin-7-yl]-1-[2-(3,6-dihydro-2H-pyridin-1-yl)-2-oxo-ethyl]pyrazol-4-yl]pyrazolo[1,5-a]pyrimidine-3-carboxamide] | 0.2 | 0.21 | – | – | – | 15 | –
12 | CC1CSc2cc(-c3nn(CC(=O)N4CC=CCC4)cc3NC(=O)c3cnn4cccnc34)c(OC(F)F)cc2N1 (single isomer, unassigned) [Example 112, N-[3-[6-(difluoromethoxy)-3-methyl-3,4-dihydro-2H-1,4-benzothiazin-7-yl]-1-[2-(3,6-dihydro-2H-pyridin-1-yl)-2-oxo-ethyl]pyrazol-4-yl]pyrazolo[1,5-a]pyrimidine-3-carboxamide] | 0.15 | 0.18 | – | – | 10 | – | –
13 | CC1CSc2cc(-c3nn(CC(=O)N(C)C)cc3NC(=O)c3cnn4cccnc34)c(OC(F)F)cc2N1 (single isomer, unassigned) [Example 113, N-[3-[6-(difluoromethoxy)-3-methyl-3,4-dihydro-2H-1,4-benzothiazin-7-yl]-1-[2-(dimethylamino)-2-oxo-ethyl]pyrazol-4-yl]pyrazolo[1,5-a]pyrimidine-3-carboxamide] | 0.22 | 0.27 | – | – | – | 22 | –
14 | CC1CSc2cc(-c3nn(CC(=O)N(C)C)cc3NC(=O)c3cnn4cccnc34)c(OC(F)F)cc2N1 (single isomer, unassigned) [Example 114, N-[3-[6-(difluoromethoxy)-3-methyl-3,4-dihydro-2H-1,4-benzothiazin-7-yl]-1-[2-(dimethylamino)-2-oxo-ethyl]pyrazol-4-yl]pyrazolo[1,5-a]pyrimidine-3-carboxamide] | 0.21 | 0.24 | – | – | 15 | – | –
15 | O=C(Nc1c[nH]nc1-c1cc2ccccc2cc1OC(F)F)c1cnn2cccnc12 [Example 1, N-(3-(3-(difluoromethoxy)naphthalen-2-yl)-1H-pyrazol-4-yl)pyrazolo[1,5-a]pyrimidine-3-carboxamide] | 0.31 | 0.14 | – | – | – | 6 | –
16 | O=C(Nc1cn(CC(=O)N2CCC(CN3CCOCC3)CC2)nc1-c1cc2ccccc2cc1OC(F)F)c1cnn2cccnc12 [Example 3, N-(3-(3-(difluoromethoxy)naphthalen-2-yl)-1-(2-(4-(morpholinomethyl)piperidin-1-yl)-2-oxoethyl)-1H-pyrazol-4-yl)pyrazolo[1,5-a]pyrimidine-3-carboxamide] | 0.38 | 0.97 | – | – | – | 8 | –
17 | Cn1cc(NC(=O)c2cnn3cccnc23)c(-c2cc3ccccc3cc2OC(F)F)n1 [Example 4, N-(3-(3-(difluoromethoxy)naphthalen-2-yl)-1-methyl-1H-pyrazol-4-yl)pyrazolo[1,5-a]pyrimidine-3-carboxamide] | 0.22 | 0.12 | – | – | – | 22 | –
18 | COC(=O)c1cc2cc(OC(F)F)c(-c3n[nH]cc3NC(=O)c3cnn4cccnc34)cc2s1 [Example 7, Methyl 5-(difluoromethoxy)-6-(4-(pyrazolo[1,5-a]pyrimidine-3-carboxamido)-1H-pyrazol-3-yl)benzo[b]thiophene-2-carboxylate] | 0.17 | 0.11 | – | – | – | 6 | –
19 | COC(=O)Cn1cc(NC(=O)c2cnn3cccnc23)c(-c2cc3sccc3cc2OC(F)F)n1 [Example 8, Methyl 2-(3-(5-(difluoromethoxy)benzo[b]thiophen-6-yl)-4-(pyrazolo[1,5-a]pyrimidine-3-carboxamido)-1H-pyrazol-1-yl)acetate] | 0.32 | 0.29 | – | – | – | 10 | –
